This is an account of results in US20230220331A1, “TEMPORARY TREATMENT MEDIUM, TREATMENT KIT, EMBRYOGENESIS ARREST INHIBITOR, EMBRYOGENESIS ARREST INHIBITORY METHOD, DEVELOPMENTAL ENGINEERING PRODUCT PREPARATION METHOD, TRANSPLANTATION METHOD, THERAPEUTIC METHOD, AND DEVELOPMENTAL ENGINEERING PRODUCT” (priority 2020, published 2023).

In test [1] the test system is inbred mouse B6J embryos. The test can be described thus: Generation of Flox inbred mice (individuals) by two-step method (Treatment Example 11). In kind it is cell-based. The procedure:
1. Up to 3 hours before TAKE, Y-27632-added mWM medium (Y-27632 final concentration 10 μM, an example of the “temporary treatment medium” of this example), Y-27632-free mWM medium (an example of “normal medium” of this example), 5 drops of each medium were dropped on 35 mm Petri dish, and then covered with paraffin oil. For the drops, twice the number of the drops plates to be performed TAKE were prepared.
2. Pronuclear stage embryos were collected, placed in Y-27632-added mWM medium, and cultured for about 30 minutes to 1 hour (temporary treatment).
3. After that, the first TAKE was performed.
3a. In the case of frozen eggs, after the first TAKE, they were placed in a Y-27632-added mWM medium and cultured for about 30 minutes to 1 hour (temporary treatment).
3b. In the case of unfrozen eggs, after the first TAKE, they were placed in a Y-27632-added mWM medium and cultured under 37° C. and 5% CO2 (5% O2) conditions until the next day (temporary treatment).
4. After the temporary treatment, the embryos were placed in Y-27632-free mWM medium and cultured at 37° C. and 5% CO2 (5% O2) conditions until the next day.
5. Both were confirmed at the next day, and the embryos at the 2-cell stage were subjected to the second TAKE.
6. After the second TAKE, the embryos were placed in Y-27632-added mWM medium and cultured for about 30 minutes to 1 hour (temporary treatment).
7. Then, they were transferred to Y-27632-free mWM medium. If necessary, culture was continued or embryo transfer was performed.
By using an inbred mouse (B6J in B6 strain) different from the inbred mouse of the treatment example 2 according to the first embodiment, knock-in is performed by the same two-step method as the above-mentioned treatment example 2, and further individual preparation is performed.

Test [2] concerns unfrozen pronuclear stage embryo (1 cell) of the inbred rat F344. The test can be described thus: Genome-edited individuals by unfrozen 1-cell TAKE of F344 (Treatment Example 16). Type of test: cell-based. Conditions: F344 unfrozen 1 cell; for NUMBER OF NEWBORNS: 2× gRNA, 14 pulses, 20% reduction rate; for KO rate (Large deletion) (%): KO individuals / newborns analyzed. An excerpt: Next, in the same manner as in Treatment Example 1 according to Example 1, a knock-out by the electroporation method was also produced in an unfrozen pronuclear stage embryo (1 cell) of the inbred rat F344. The conditions at this time were that the gRNA concentration was twice the specified amount, the pulse was 14 times, and the reduction rate was 20%.

For test [3], the system named is two-cell frozen embryos of heterologous inbred SPR2 mouse. The test can be described thus: Individual production from frozen eggs of SPR2 (Treatment Example 3). In kind it is cell-based, Mus spretus. Conditions: SPR2 frozen 2-cell embryos thawed, 1 hour in Y-27632 medium. As to the method:
1. Up to 3 hours before TAKE, Y-27632-added mWM medium (Y-27632 final concentration 10 μM, an example of the “temporary treatment medium” of this example), Y-27632-free mWM medium (an example of “normal medium” of this example) were dropped into 35 mm Petri dishes by 5 drops, respectively, to prepare drops covered with paraffin oil. 2. Two-cell stage embryos were collected from the drops or thawed, placed in Y-27632-added mWM medium, and cultured for about 30 minutes to 1 hour (temporary treatment). According to a typical method, in the afternoon when female mice and rats were mated with males with vasoligation and confirmed to be plugged, about 10 each were transplanted into the left and right oviducts or uterus of plug-confirmed mature female mice and rats. In this production example, two-cell frozen embryos of SPR2 were thawed, cultured in a temporary treatment medium containing Y-27632 for 1 hour, and transplanted into the uterus of a pseudopregnant female mouse. […] As a result, frozen embryo-derived individuals (16 transplanted embryos, 6 newborns) were obtained.

In test [4] the test system is two-cell stage embryo of a heterologous inbred SPR2 mouse. The test is described as follows: Heterologous Tyr knockout mouse production (Treatment Example 8). Type of test: cell-based, Mus spretus. Conditions: SPR2, Tyr KO. The procedure: 1. Up to 3 hours before TAKE, Y-27632-added mWM medium (Y-27632 final concentration 10 μM, an example of the “temporary treatment medium” of this example), Y-27632-free mWM medium (an example of “normal medium” of this example) were dropped into 35 mm Petri dishes by 5 drops, respectively, to prepare drops covered with paraffin oil.
2. Two-cell stage embryos were collected from the drops or thawed, placed in Y-27632-added mWM medium, and cultured for about 30 minutes to 1 hour (temporary treatment).
3. After that, TAKE was performed.
4. After TAKE, the embryos were placed in Y-27632-added mWM medium and cultured for about 30 minutes to 1 hour (temporary treatment). Then, the embryos were placed in Y-27632-free mWM medium and cultured at 37° C. under 5% CO2 and 5% O2 conditions until transplantation.
By using a two-cell stage embryo of a heterologous inbred SPR2 mouse, four guide RNAs (crRNA: tracrRNA) for the Tyr gene were used about 100 ng/μL per RNA, for a total of about 400 ng/μL, and it was electroporated once or twice. Before and after electroporation, the embryos were cultured in the temporary treatment medium of this example.

The mark [5] stands for this setting: floxed Mecp2 2STEP (HIGH CONCENTRATION).
The mark [6] stands for this setting: 16 blastocysts transferred to uterus (3.5 days).

For `C[C@@H](N)[C@H]1CC[C@H](C(=O)Nc2ccncc2)CC1` [Y-27632, trans-4-[(1R)-1-Aminoethyl]-N-4-pyrid inylcyclohexanecarboxamide], the Flox individuals % in test [1] (floxed Drb1 2STEP) came out at 2.6%; in test [1] (setting [5]), 3.9%. The “NUMBER OF FLOX INDIVIDUALS” value in test [1] (floxed Drb1 2STEP) is 1/39; in test [1] (setting [5]), 2/51. In addition, the “NUMBER OF NEWBORNS” value in test [2] (25 TAKE embryos, 1 recipient) is recorded as 4; in test [2] (75 TAKE embryos, 3 recipients) it was 16. The “Number of KO individuals (large deletion)” value in test [2] (25 TAKE embryos, 1 recipient, 4 newborns analyzed) was 0; in test [2] (75 TAKE embryos, 3 recipients, 13 newborns analyzed) it was 7. For the same compound, the “KO rate (Large deletion) (%)” value was “(0%)” in test [2] (25 TAKE embryos) and “(53.8%)” in test [2] (75 TAKE embryos). Besides, the “NUMBER OF BIRTHS FEMALE” value in test [3] (setting [6]) was 4. Further, in test [3] (setting [6]), the “NUMBER OF BIRTHS MALE” value was 2. For the same compound, in test [3] (16 embryos transferred to uterus (3.5 days)), the “NUMBER OF BIRTHS TOTAL (newborns)” value stood at 6. For the same compound, the mosaics obtained in test [4] (electroporated once) and in test [4] (electroporated twice) was 3 in each case. For the same compound, the individuals obtained in test [4] (electroporated once, 20 embryos transplanted) is recorded as 7; in test [4] (electroporated twice, 13 embryos transplanted), 7. For the same compound, the “whites (homo or compound heterozygote) obtained” value in test [4] (electroporated twice) is 3.
